Source: patent US10155764B2, “Therapeutic compounds and uses thereof” (GENENTECH, INC., priority 2014, dated 2018)

target: PCAF719-832 bromodomain (Homo sapiens (Human), UniProt Q92831); experiment: PCAF AlphaLisa binding assay; details: PCAF bromodomain 225 nM, biotinylated small molecule ligand 6 nM
Sequence (Q92831 719-832): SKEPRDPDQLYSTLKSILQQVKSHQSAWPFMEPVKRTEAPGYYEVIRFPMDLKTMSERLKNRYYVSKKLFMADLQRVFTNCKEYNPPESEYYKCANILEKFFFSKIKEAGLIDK
Description: PCAF bromodomain binding and inhibition of the compounds disclosed herein was assessed by monitoring the engagement of biotinylated small molecule ligand (known to bind to the PCAF bromodomain) with the target using the AlphaLisa technology (Perkin-Elmer).

Structure (SMILES) | IC50 [nM]
CN(C)C(CNc1nn(C)c(=O)c2[nH]ccc12)c1ccccc1 (racemic) [Example 10, 4-((2-(dimethylamino)-2-phenylethyl)amino)-6-methyl-1H-pyrrolo[2,3-d]pyridazin-7(6H)-one] | 240
CC(CN(C)C)Nc1nn(C)c(=O)c2ccncc12 (racemic) [Example 12, 4-((1-(dimethylamino)propan-2-yl)amino)-2-methylpyrido[3,4-d]pyridazin-1(2H)-one] | 220
CC(CN(C)C)Nc1nn(C)c(=O)c2cnccc12 (racemic) [Example 13, 1-((1-(dimethylamino)propan-2-yl)amino)-3-methylpyrido[3,4-d]pyridazin-4(3H)-one] | 150
CN(C)C(CNc1nn(C)c(=O)c2ccccc12)c1ccc(F)cc1 (racemic) [Example 20, 4-((2-(dimethylamino)-2-(4-fluorophenyl)ethyl)amino)-2-methylphthalazin-1(2H)-one] | 110
COc1ccc(C(CNc2nn(C)c(=O)c3ccccc23)N(C)C)cc1 (racemic) [Example 21, 4-((2-(dimethylamino)-2-(4-methoxyphenyl)ethyl)amino)-2-methylphthalazin-1(2H)-one] | 64
CN(C)C(CNc1nn(C)c(=O)c2ccccc12)c1ccccc1 (racemic) [Example 22, 4-((2-(dimethylamino)-2-phenylethyl)amino)-2-methylphthalazin-1(2H)-one] | 140
CN(C)C(CNc1nn(C)c(=O)c2ccccc12)c1ccccc1Cl (racemic) [Example 25, 4-((2-(2-chlorophenyl)-2-(dimethylamino)ethyl)amino)-2-methylphthalazin-1(2H)-one] | 110
CN(C)C(CNc1nn(C)c(=O)c2ccccc12)c1ccccc1F (racemic) [Example 26, 4-((2-(dimethylamino)-2-(2-fluorophenyl)ethyl)amino)-2-methylphthalazin-1(2H)-one] | 110
CN(C)C(CNc1nn(C)c(=O)c2ccccc12)c1ccc(Cl)cc1 (racemic) [Example 27, 4-((2-(4-chlorophenyl)-2-(dimethylamino)ethyl)amino)-2-methylphthalazin-1(2H)-one] | 120
CC(CN(C)C)Nc1nn(C)c(=O)c2ccccc12 (racemic) [Example 28, 4-((1-(dimethylamino)propan-2-yl)amino)-2-methylphthalazin-1(2H)-one] | 66
CN1CCCC1CNc1nn(C)c(=O)c2ccccc12 (racemic) [Example 30, 2-methyl-4-(((1-methylpyrrolidin-2-yl)methyl)amino)phthalazin-1(2H)-one] | 1700
C/C=C/Cn1nc(NC(C)CN(C)C)c2ccccc2c1=O (racemic) [Example 31, (E)-2-(but-2-en-1-yl)-4-((1-(dimethylamino)propan-2-yl)amino)phthalazin-1(2H)-one] | 8100
Cn1nc(N[C@@H]2CCCC[C@H]2N)c2ccccc2c1=O (racemic) [Example 35, 4-(((1R,2R)-2-aminocyclohexyl)amino)-2-methylphthalazin-1(2H)-one] | 12000
CN(C)C(CNc1nn(C)c(=O)c2c1CCCC2)c1ccccc1 (racemic) [Example 36, 4-((2-(dimethylamino)-2-phenylethyl)amino)-2-methyl-5,6,7,8-tetrahydrophthalazin-1(2H)-one] | 820
CN(C)C(CNc1nn(C)c(=O)c2c1CCC2)c1ccccc1 (racemic) [Example 37, 4-((2-(dimethylamino)-2-phenylethyl)amino)-2-methyl-2,5,6,7-tetrahydro-1H-cyclopenta[d]pyridazin-1-one] | 130
CN(C)C(CNc1nn(C)c(=O)c2ccccc12)C1CCCCC1 (racemic) [Example 38, 4-((2-cyclohexyl-2-(dimethylamino)ethyl)amino)-2-methylphthalazin-1(2H)-one] | 700
CCC(CNc1nn(C)c(=O)c2ccccc12)N(C)C (racemic) [Example 39, 4-((2-(dimethylamino)butyl)amino)-2-methylphthalazin-1(2H)-one] | 180
CN1CCCC(Nc2nn(C)c(=O)c3ccccc23)C1 (racemic) [Example 43, 2-methyl-4-((1-methylpiperidin-3-yl)amino)phthalazin-1(2H)-one] | 790
CN1CCC(Nc2nn(C)c(=O)c3ccccc23)C1 (racemic) [Example 44, 2-methyl-4-((1-methylpyrrolidin-3-yl)amino)phthalazin-1(2H)-one] | 260
CC(CN(C)C)Nc1nn(C)c(=O)c2c1CCN(c1ccc(Cl)cc1)C2 (racemic) [Example 89, 6-(4-chlorophenyl)-1-((1-(dimethylamino)propan-2-yl)amino)-3-methyl-5,6,7,8-tetrahydropyrido[3,4-d]pyridazin-4(3H)-one] | 1200
CC(CN(C)C)Nc1nn(C)c(=O)c2c1CN(c1ccc(Cl)cc1)CC2 (racemic) [Example 90, 6-(4-chlorophenyl)-4-((1-(dimethylamino)propan-2-yl)amino)-2-methyl-5,6,7,8-tetrahydropyrido[3,4-d]pyridazin-1(2H)-one] | 820
C[C@@H](CNc1nn(C)c(=O)c2cccnc12)N(C)C (single isomer, unassigned) [Example 7A] | 860
C[C@H](CNc1nn(C)c(=O)c2cccnc12)N(C)C (single isomer, unassigned) [Example 7B] | 72
C[C@@H](CN(C)C)Nc1nn(C)c(=O)c2cccnc12 (single isomer, unassigned) [Example 8A] | 42
C[C@H](CN(C)C)Nc1nn(C)c(=O)c2cccnc12 (single isomer, unassigned) [Example 8B] | > 5000
CN(C)[C@@H]1CCCC[C@H]1Nc1nn(C)c(=O)c2cccnc12 (single isomer, unassigned) [Example 11A] | 180
CN(C)[C@H]1CCCC[C@@H]1Nc1nn(C)c(=O)c2cccnc12 (single isomer, unassigned) [Example 11B] | > 5000

Structure (SMILES) | IC50 [nM]
Cn1nc(N[C@@H]2CCCC[C@@H]2N)c2ncccc2c1=O (single isomer, unassigned) [Example 14A] | > 5000
Cn1nc(N[C@H]2CCCC[C@H]2N)c2ncccc2c1=O (single isomer, unassigned) [Example 14B] | 1500
CN(C)[C@H]1CCCC[C@H]1Nc1nn(C)c(=O)c2cccnc12 (single isomer, unassigned) [Example 15A] | 78
CN(C)[C@@H]1CCCC[C@@H]1Nc1nn(C)c(=O)c2cccnc12 (single isomer, unassigned) [Example 15B] | 1500
CCn1nc(N[C@H](C)CN(C)C)c2ccccc2c1=O (single isomer, unassigned) [Example 17A] | > 5000
CCn1nc(N[C@@H](C)CN(C)C)c2ccccc2c1=O (single isomer, unassigned) [Example 17B] | 280
CN(C)[C@H](CNc1nn(C)c(=O)c2ccccc12)c1ccccc1 (single isomer, unassigned) [Example 22A] | 47
CN(C)[C@@H](CNc1nn(C)c(=O)c2ccccc12)c1ccccc1 (single isomer, unassigned) [Example 22B] | 550
CC[C@@H](CNc1nn(C)c(=O)c2ccccc12)N(C)C (single isomer, unassigned) [Example 39A] | 550
CC[C@H](CNc1nn(C)c(=O)c2ccccc12)N(C)C (single isomer, unassigned) [Example 39B] | 89
CC[C@H](Nc1nn(C)c(=O)c2ccccc12)[C@H](c1ccccc1)N(C)C (single isomer, unassigned) [Example 56] | 41
CC[C@H](Nc1nn(C)c(=O)c2cccnc12)[C@H](c1ccccc1)N(C)C (single isomer, unassigned) [Example 58] | 40
CC(C)Oc1ccc([C@@H]([C@H](C)Nc2nn(C)c(=O)c3ccccc23)N(C)C)cc1 (single isomer, unassigned) [Example 59] | 33
C[C@H](Nc1nn(C)c(=O)c2ccccc12)[C@H](c1ccccn1)N(C)C (single isomer, unassigned) [Example 60] | 21
C[C@H](Nc1nn(C)c(=O)c2ccccc12)[C@H](c1cccnc1)N(C)C (single isomer, unassigned) [Example 61] | 86
COc1ccc([C@@H]([C@H](C)Nc2nn(C)c(=O)c3ccccc23)N(C)C)cn1 (single isomer, unassigned) [Example 62] | 63
C[C@H](Nc1nn(C)c(=O)c2cccnc12)[C@H](c1ccc(Oc2ccccc2)cc1)N(C)C (single isomer, unassigned) [Example 64] | 290
Cc1cccc2c(N[C@@H](C)[C@H](c3ccccc3)N(C)C)nn(C)c(=O)c12 (single isomer, unassigned) [Example 69A] | > 5000
Cc1cccc2c(N[C@H](C)[C@@H](c3ccccc3)N(C)C)nn(C)c(=O)c12 (single isomer, unassigned) [Example 69B] | 170
Cc1cccc2c(=O)n(C)nc(N[C@@H](C)[C@H](c3ccccc3)N(C)C)c12 (single isomer, unassigned) [Example 70A] | 36
Cc1cccc2c(=O)n(C)nc(N[C@H](C)[C@@H](c3ccccc3)N(C)C)c12 (single isomer, unassigned) [Example 70B] | 1800
C[C@H](Nc1nn(C)c(=O)c2[nH]ccc12)[C@H](c1ccccc1)N(C)C (single isomer, unassigned) [Example 71A] | > 5000
C[C@@H](Nc1nn(C)c(=O)c2[nH]ccc12)[C@@H](c1ccccc1)N(C)C (single isomer, unassigned) [Example 71B] | 83
C[C@H](Nc1nn(C)c(=O)c2ccccc12)[C@H](c1ccccc1)N(C)C (single isomer, unassigned) [Example 73A] | 23
C[C@@H](Nc1nn(C)c(=O)c2ccccc12)[C@@H](c1ccccc1)N(C)C (single isomer, unassigned) [Example 73B] | 680
CC(Nc1nn(C)c(=O)c2cccnc12)C(c1ccc(S(=O)(=O)c2ccccc2)cc1)N(C)C (single isomer, unassigned) [Example 74, 8-((1-(dimethylamino)-1-(4-(phenylsulfonyl)phenyl)propan-2-yl)amino)-6-methylpyrido[2,3-d]pyridazin-5(6H)-one] | 40
